Consider one substance from US20250171407A1, “ULTRAVIOLET ABSORBER” (BASF SE, priority 2022, published 2025).

The nature of the data set: Solubility test: visual assessment of defects in the dried paint of the stabilized coating formulation. Format: physicochemical. From the text:
Each coating formulation A was stabilized with 1.0 or 3.0 active % based on resin solids of Tinuvin® 1130 (UV absorber, BASF SE), Tinuvin® 9945-DW (N) or inventive examples samples.
Each coating formulation further contained 1,0 active % based on resin solids of Tinuvin® 123DW (N) (HALS, BASF SE).
The clear coat formulations were subsequently applied by brush onto a wood substrate (thickness: two layers à 100 g/m^2 resulting after drying at room temperature in a final dry film thickness of ˜40 μm). The clear coat formulations were subsequently applied by draw-down onto a glass plate (thickness: one layer b 200 g/m^2 resulting after drying at room temperature in a final dry film thickness of ˜40 μm).
The solubility of above-described coating formulation containing one of the compounds obtained in examples 3, 11 and 27 in the amount given above was tested. The solubility was visually assessed qualitatively by presence of defects in the dried paint.

As for Tinuvin® 1130 [Example 27], the Presence of defects entry is recorded as “no”.
